From patent US10577363B2, “Substituted piperidine compounds” (EPIZYME, INC., priority 2014, dated 2020)
pIC50: −log10 of the molar value. Counter-ions that a name gives are not always drawn.

Legend:
[1] = molecular target: T1, SMYD3 (Homo sapiens (Human), UniProt Q9H7B4); assay: SMYD3 biochemical assay (SPA, 3H-SAM methylation of MEKK2 protein substrate); conditions: for IC50: read-out: SMYD3 Biochem IC50 (μM)*
Summary of the method: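 Full-length native human SMYD3 (E. coli-expressed, tags removed) preincubated with compounds 30 min at room temperature, then reaction started with 3H-SAM and GST-tagged MEKK2 protein in 25 mM Tris-Cl pH 8.0, 1 mM TCEP, 0.005% BSG, 0.005% Tween 20. Quenched with unlabelled SAM (100 uM final); 3H-MEKK2 counted by SPA.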

[2] = molecular target: T1, SMYD3; assay: SMYD3 cell assay (Trimethyl-MEKK2 In-Cell Western in 293T/17 cells); assay type: cell-based; conditions: for IC50: read-out: SMYD3 Cell IC50 (μM)*
Text: Trimethyl-MEKK2-in-Cell Western Assay
MEM/Glutamax medium, Optimem Reduced Serum medium, penicillin-streptomycin, 0.05% trypsin and 1×D-PBS were purchased from Life Technologies, Grand Island, N.Y., USA. PBS-10× was purchased from Ambion, Life Technologies, Grand Island, N.Y., USA. PBS with Tween 20 (PBST (10×)) was purchased from KPL, Gaithersburg, Md., USA. Tet System FBS-approved FBS US Source was purchased from Clontech, Mountain View, Calif., USA. Odyssey blocking buffer, 800CW goat anti-rabbit IgG (H+L) antibody, 680CW Goat anti-mouse IgG (H+L) and Licor Odyssey infrared scanner were purchased from Licor Biosciences, Lincoln, Nebr., USA. Tri-methyl-Lysine [A260]-MEKK2 antibody, MEKK2 and SMYD3 plasmids were made at Epizyme. Anti-flag monoclonal mouse antibody was purchased from Sigma, St. Louis, Mo., USA. Methanol was purchased from VWR, Franklin, Mass., USA. 10% Tween 20 was purchased from KPL, Inc., Gaithersburg, Md., USA. Fugene was purchased from Promega, Madison, Wis., USA. The Biotek ELx405 was purchased from BioTek, Winooski, Vt., USA. The multidrop combi was purchased from Thermo Scientific, Waltham, Mass., USA.
Cell Treatment, in Cell Western (ICW) for Detection of Trimethyl-Lysine-MEKK2 and MEKK2.
Plasmids were prepared for delivery to cells by first mixing 1350 μL Opti-MEM with Fugene (81 μL) in a sterile Eppendorf and incubated for five minutes at room temperature (RT). […] Entire volume of Opti-MEM/Fugene mixture was then added to a microfuge tube containing DNA plasmid, mixed and then incubated×15 minutes at RT. […] Medium was then removed, and cells were washed once with PBS in the flask. Trypsin 0.05% (3 mL) was added and cells incubated for three minutes. Room temperature MEM+10% Tet system FBS was added and cells were mixed gently, and counted using the Vi-cell. Cells were seeded at 100,000 cells/mL in 50 μL MEM/10% Tet FBS/Pen/Strep to a 384 well black/clear poly-D-lysine coated plate containing test agent diluted in DMSO. The final top concentration of test compound was 40 μM. […] Plates were incubated×30 minutes at RT in low-airflow area, followed by incubation at 37° C. under 5% CO2 for 24 hours. Medium was aspirated from all wells of assay plates prior to fixation and permeabilization with ice cold (−20° C.) methanol (90 μL/well) for ten minutes. Plates were rinsed with PBS three times on BioTek ELx405. PBS was removed with a final aspiration, and Odyssey blocking buffer (50 μL/well) was added to each well and incubated for one hour at RT. Primary antibody solution was prepared (anti-trimethyl-MEKK2 at 1:600 dilution plus mouse anti-flag antibody at 1:10,000 dilution in diluent (Odyssey Blocking buffer+0.1% Tween 20)) and 20 μL per well was dispensed using the Multidrop Combi. Assay plates were then sealed with foil, and incubated overnight at 4° C. Plates were washed five times with PBS-Tween (1×) on Biotek ELx405 and blotted on paper towel to remove excess reagent.
First, the ratio for each well was determined by:
Each plate included fourteen control wells of DMSO only treatment (Minimum Inhibition) as well as fourteen control wells for maximum inhibition (Background). The average of the ratio values for each control type was calculated and used to determine the percent inhibition for each test well in the plate. Reference compound was serially diluted two-fold in DMSO for a total of nine test concentrations, beginning at 40 μM.
Percent inhibition was calculated (below).
Non-linear regression curves were generated to calculate the IC50 and dose-response relationship using triplicate wells per concentration of compound.

[3] = Table 2A, read-out: SMYD3 Biochem IC50
[4] = Table 2A, read-out: SMYD3 Cell IC50

T1 sequence (Q9H7B4 whole entry): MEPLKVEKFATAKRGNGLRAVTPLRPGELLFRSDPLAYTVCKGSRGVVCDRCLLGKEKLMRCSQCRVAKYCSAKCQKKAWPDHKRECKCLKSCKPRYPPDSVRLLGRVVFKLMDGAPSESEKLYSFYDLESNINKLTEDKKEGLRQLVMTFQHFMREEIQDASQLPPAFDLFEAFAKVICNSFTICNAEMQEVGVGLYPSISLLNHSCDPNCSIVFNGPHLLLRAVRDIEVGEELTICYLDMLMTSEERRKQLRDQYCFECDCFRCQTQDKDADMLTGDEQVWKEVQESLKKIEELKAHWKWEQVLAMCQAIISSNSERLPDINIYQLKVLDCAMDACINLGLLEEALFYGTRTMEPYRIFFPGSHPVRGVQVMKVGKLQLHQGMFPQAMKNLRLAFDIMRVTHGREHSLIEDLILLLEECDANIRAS

SMILES	IC50 [1]	pIC50 [1, 3]	pIC50 [2, 4]	further results
CC(C)c1cc(C[C@@H](CN)C(=O)N2CCC(NC(=O)c3cc(C4CC4)on3)CC2)ccc1O [Cpd. No. 121, N-[1-[(2S)-3-amino-2-[[4-hydroxy-3-(propan-2-yl)phenyl]methyl]propanoyl]piperidin-4-yl]-5-cyclopropyl-1,2-oxazole-3-carboxamide hydrochloride salt]	0.00957 µM	–	–	IC50 [2]: 0.68 µM
NCCCS(=O)(=O)N1C2CCCC1CC(NC(=O)c1cc(C3CC3)on1)C2 (stereo not shown) [Cpd. No. 181, N-[9-[(3-aminopropane)sulfonyl]-9-azabicyclo[3.3.1]nonan-3-yl]-5-cyclopropyl-1,2-oxazole-3-carboxamide hydrochloride salt]	0.0927 µM	–	–	IC50 [2]: 0.566 µM
C[C@H]1C[C@@H](NC(=O)c2cc(C3CC3)on2)CCN1S(=O)(=O)N1CCN(C)CC1 [Cpd. No. 279, 5-cyclopropyl-N-[(2S,4S)-2-methyl-1-(4-methylpiperazine-1-sulfonyl)piperidin-4-yl]-1,2-oxazole-3-carboxamide]	0.0815 µM	–	–	IC50 ([2]; 293T/17 cells): 0.266 µM
O=C(N[C@H]1CCN(C(=O)CC2CCNCC2)[C@@H](Cc2ccccc2)C1)c1cc(C2CC2)on1 [Cpd. No. 348, N-((2S,4S)-2-benzyl-1-(2-(piperidin-4-yl)acetyl)piperidin-4-yl)-5-cyclopropylisoxazole-3-carboxamide hydrochloride]	0.0225 µM	–	–	IC50 ([2]; 293T/17 cells): 0.838 µM
C[C@H]1CN(S(=O)(=O)CCCN)CC[C@H]1NC(=O)c1cc(C2CC2)on1 [Cpd. No. 386, N-((3S,4R)-1-(3-aminopropylsulfonyl)-3-methylpiperidin-4-yl)-5-cyclopropylisoxazole-3-carboxamide]	0.0282 µM	–	–	pIC50 [2]: 6.47
C[C@@H]1CN(C(=O)[C@H]2CC[C@H](N)CC2)[C@H](C)C[C@@H]1NC(=O)c1cc(C2CC2)on1 [Cpd. No. 420, N-((2R,4S,5R)-1-((1r,4R)-4-aminocyclohexanecarbonyl)-2,5-dimethylpiperidin-4-yl)-5-cyclopropylisoxazole-3-carboxamide]	0.0113 µM	–	–	IC50 ([2]; 293T/17 cells): 0.205 µM
NCCCS(=O)(=O)N1[C@@H]2CC[C@H]1C[C@@H](NC(=O)c1cc(C3CC3)on1)C2 [Cpd. No. 485, N-((1S,3r,5R)-8-(3-aminopropylsulfonyl)-8-aza-bicyclo[3.2.1]octan-3-yl)-5-cyclopropylisoxazole-3-carboxamide]	0.00507 µM	–	–	IC50 ([2]; 293T/17 cells): 0.129 µM
C[C@H]1C[C@@H](NC(=O)c2cc(C3CC3)on2)CCN1S(=O)(=O)CCCNCc1ccccc1 [Cpd. No. 500, N-((2S,4S)-1-(3-(benzylamino)propylsulfonyl)-2-methylpiperidin-4-yl)-5-cyclopropylisoxazole-3-carboxamide]	–	–	–	pIC50 ([1]; Table 1A, IC50 values are an average of n = 1 to n = 50, read-out: SMYD3 Biochem IC50): 8.09; pIC50 ([2]; Table 1A, IC50 values are an average of n = 1 to n = 50, read-out: SMYD3 Cell IC50): 6.98
O=C(N[C@H]1C[C@H]2CC[C@@H](C1)N2S(=O)(=O)CC1CCN(CCCC(F)(F)F)CC1)c1cc(C2CC2)on1 [Cpd. No. 528, 5-cyclopropyl-N-[(1R,3r,5S)-8-([[1-(4,4,4-trifluorobutyl)piperidin-4-yl]methane]sulfonyl)-8-azabicyclo[3.2.1]octan-3-yl]-1,2-oxazole-3-carboxamide]	–	9.22	7.64	–
C[C@H]1C[C@@H](NC(=O)c2cc(C3CC3)on2)CCN1S(=O)(=O)N1CCC(N)CC1 [Cpd. No. 529, N-((2S,4S)-1-(4-aminopiperidin-1-ylsulfonyl)-2-methylpiperidin-4-yl)-5-cyclopropylisoxazole-3-carboxamide trifluoroacetic acid]	–	9.10	7.82	–
NC1CCN(S(=O)(=O)N2[C@@H]3CC[C@H]2C[C@@H](NC(=O)c2cc(C4CC4)on2)C3)CC1 [Cpd. No. 532, N-((1R,3r,5S)-8-(4-aminopiperidin-1-ylsulfonyl)-8-aza-bicyclo[3.2.1]octan-3-yl)-5-cyclopropylisoxazole-3-carboxamide hydrochloride]	–	9.05	7.67	–
C[C@H]1C[C@@H](NC(=O)c2cc(C3CC3)on2)CCN1S(=O)(=O)c1ccc(C(C)(C)N)cc1 [Cpd. No. 541, N-((2S,4S)-1-(4-(2-aminopropan-2-yl)phenylsulfonyl)-2-methylpiperidin-4-yl)-5-cyclopropylisoxazole-3-carboxamide]	–	8.85	7.59	–
O=C(N[C@H]1C[C@H]2CC[C@@H](C1)N2S(=O)(=O)CC1CCNCC1)c1cc(C2CC2)on1 [Cpd. No. 543, 5-cyclopropyl-N-((1R,3r,5S)-8-(piperidin-4-ylmethylsulfonyl)-8-aza-bicyclo [3.2.1]octan-3-yl) isoxazole-3-carboxamide]	–	8.74	7.35	–
O=C(N[C@H]1C[C@H]2CC[C@@H](C1)N2S(=O)(=O)N1CC2(CCNCC2)C1)c1cc(C2CC2)on1 [Cpd. No. 559, N-((1R,3r,5S)-8-(2,7-diazaspiro[3.5]nonan-2-ylsulfonyl)-8-azabicyclo[3.2.1]octan-3-yl)-5-cyclopropylisoxazole-3-carboxamide 2,2,2-trifluoroacetate]	–	8.33	7.50	–
CCc1cc(C(=O)N[C@H]2C[C@H]3CC[C@@H](C2)N3S(=O)(=O)CC2CCNCC2)no1 [Cpd. No. 562, 5-ethyl-N-((1R,3r,5S)-8-(piperidin-4-ylmethylsulfonyl)-8-aza-bicyclo[3.2.1]octan-3-yl)isoxazole-3-carboxamide]	–	8.28	7.21	–
CN1CCC(CS(=O)(=O)N2[C@@H]3CC[C@H]2C[C@@H](NC(=O)c2cc(C4CC4)on2)C3)CC1 [Cpd. No. 770, 5-cyclopropyl-N-((1S,3r,5R)-8-((l-methylpiperidin-4-yl)methylsulfonyl)-8-aza-bicyclo[3.2.1]octan-3-yl)isoxazole-3-carboxamide]	–	–	–	pIC50 ([1]; read-out: SMYD3 Biochem IC50*): 9.06; pIC50 ([2]; read-out: SMYD3 Cell IC50*): 7.72

Continued, in another order:

IC50 [1]	SMILES	pIC50 [1, 3]	pIC50 [2, 4]	further results
0.132 µM	C[C@H]1C[C@@H](NC(=O)c2cc(C3CC3)on2)CCN1S(=O)(=O)c1ccc(NCCN2CCOCC2)nc1 [Cpd. No. 458, 5-cyclopropyl-N-((2S,4S)-2-methyl-1-(6-(2-morpholinoethylamino)pyridin-3-ylsulfonyl)piperidin-4-yl)isoxazole-3-carboxamide dihydrochloride]	–	–	IC50 ([2]; 293T/17 cells): 0.581 µM
0.116 µM	N[C@@H](Cc1ccc(O)c(I)c1)C(=O)N1CCC(NC(=O)c2cc(C3CC3)on2)CC1 [compound 5, (S)-N-(1-(2-amino-3-(4-hydroxy-3-iodophenyl)propanoyl)piperidin-4-yl)-5-cyclopropylisoxazole-3-carboxamide]	–	–	IC50 [2]: 0.809 µM
0.319 µM	NC[C@@H](Cc1ccccc1)C(=O)N1CCC(NC(=O)c2cc(C3CC3)on2)CC1 [compound 10, (R)-N-(1-(3-amino-2-benzylpropanoyl)piperidin-4-yl)-5-cyclopropylisoxazole-3-carboxamide]	–	–	IC50 [2]: 1.82 µM
0.0423 µM	NC[C@H](Cc1ccc(O)c(I)c1)C(=O)N1CCC(NC(=O)c2cc(C3CC3)on2)CC1 [compound 29, (S)-N-(1-(3-amino-2-(4-hydroxy-3-iodobenzyl)propanoyl)piperidin-4-yl)-5-cyclopropylisoxazole-3-carboxamide]	–	–	IC50 [2]: 1.1 µM
